# Molecular target: human Nav1.7 (Homo sapiens (Human), UniProt Q15858)
# Experiment: FLIPR sodium dye assay (CoroNa Green AM Na+ dye, primary fluorescence assay)
# Format: cell-based
# Conditions: recombinant Nav1.7/HEK293 cells
# Experimental: In vitro assays were performed in a recombinant cell line expressing cDNA encoding the alpha subunit (Nav1.7, SCN9a, PN1, NE) of human Nav1.7 (Accession No. NM_002977). The cell line was provided by investigators at Yale University (Cummins et al, J. Neurosci. 18(23): 9607-9619 (1998)). For dominant selection of the Nav1.7-expressing clones, the expression plasmid co-expressed the neomycin resistance gene. The cell line was constructed in the human embryonic kidney cell line, HEK293, under the influence of the CMV […] promoter, and stable clones were selected using limiting dilution cloning and antibiotic selection using the neomycin analogue, G418. Recombinant beta and gamma subunits were not introduced into this cell line. Additional cell lines expressing recombinant Nav1.7 cloned from other species can also be used, alone or in combination with various beta subunits, gamma subunits or chaperones.
# Unless otherwise noted, cell culture reagents were purchased from Mediatech of Herndon, Va. The recombinant Nav1.7/HEK293 cells were routinely cultured in growth medium consisting of Dulbecco's […] essential medium containing 10% fetal bovine serum (FBS, Hyclone, Thermo Fisher Scientific, Logan, Utah), 100 U/mL penicillin, 100 μg/mL streptomycin, 2-4 mM L-glutamine, and […] G418. For natural, non-recombinant cell lines, the selective antibiotic was omitted, and additional media formulations can be applied as needed.
# The final buffer consisted of 20 mM Hepes, pH 7.3, 1.261 mM CaCl2, 0.493 mM MgCl2, 0.407 mM Mg(SO)4, 5.33 mM KCl, 0.441 mM KH2PO4, 137 mM NaCl, 0.336 mM Na2HPO4 and […] D-glucose (Hanks et al., Proc. Soc. Exp. Biol. Med. 71:196 (1949)), and the simple formulation was typically the basic buffer throughout the assay (i.e., all wash and addition steps).
# The fluorescence indicator used in the primary fluorescence assay was the cell permeant version of CoroNa™ Green (Invitrogen, Molecular Probes, Eugene, Oreg.), a dye that emits light in the fluorescence range (Harootunian et al., J. Biol. Chem. 264(32):19458-19467 (1989)). The intensity of this emission, but not the wavelength range, is increased when the dye is exposed to Na^+ ions, which it can bind with partial selectivity. Cells expressing Nav1.7 or other sodium channels were loaded with the CoroNa™ Green dye immediately in advance of the fluorescence assay, and then, after agonist stimulation, the mobilization of Na^+ ions was detected as the Na^+ ions flowed from the extracellular fluid into the cytoplasm through the activated sodium channel pores. The dye was stored in the dark as a lyophilized powder, and then an aliquot was dissolved immediately before the cell loading procedure, according to the instructions of the manufacturer, to a stock concentration of 10 mM in DMSO. It was then diluted in the assay buffer to a 4× concentrated working solution, so that the final concentration of dye in the cell loading buffer was 5 μM.
# In the fluorescence assays, two agonists were used in combination, namely 1) veratridine; and 2) the venom from the yellow scorpion, Leiurus quinquestriatus hebraeus. Veratridine is an alkaloid small molecule that facilitates the capture of channel openings by inhibiting inactivation, and the scorpion venom is a natural preparation that includes peptide toxins selective for different subsets of voltage-gated sodium channels. These scorpion toxins inhibit the fast inactivation of their cognate target channels. Stock solutions of the agonists were prepared to 40 mM in DMSO (veratridine) and 1 mg/mL in dH2O (scorpion venom), and then diluted to make a 4× or 2× stock (depending on the particular assay) in assay buffer, the final concentration being 100 μM (veratridine) and 10 μg/mL (scorpion venom). Both of the agonists were purchased from Sigma Aldrich, St. Louis, Mo.
# Test compounds were dissolved in DMSO to yield 10 mM stock solutions. […]
# Sequence of human Nav1.7 (Q15858 other isoform, or with tags, fused parts or gaps): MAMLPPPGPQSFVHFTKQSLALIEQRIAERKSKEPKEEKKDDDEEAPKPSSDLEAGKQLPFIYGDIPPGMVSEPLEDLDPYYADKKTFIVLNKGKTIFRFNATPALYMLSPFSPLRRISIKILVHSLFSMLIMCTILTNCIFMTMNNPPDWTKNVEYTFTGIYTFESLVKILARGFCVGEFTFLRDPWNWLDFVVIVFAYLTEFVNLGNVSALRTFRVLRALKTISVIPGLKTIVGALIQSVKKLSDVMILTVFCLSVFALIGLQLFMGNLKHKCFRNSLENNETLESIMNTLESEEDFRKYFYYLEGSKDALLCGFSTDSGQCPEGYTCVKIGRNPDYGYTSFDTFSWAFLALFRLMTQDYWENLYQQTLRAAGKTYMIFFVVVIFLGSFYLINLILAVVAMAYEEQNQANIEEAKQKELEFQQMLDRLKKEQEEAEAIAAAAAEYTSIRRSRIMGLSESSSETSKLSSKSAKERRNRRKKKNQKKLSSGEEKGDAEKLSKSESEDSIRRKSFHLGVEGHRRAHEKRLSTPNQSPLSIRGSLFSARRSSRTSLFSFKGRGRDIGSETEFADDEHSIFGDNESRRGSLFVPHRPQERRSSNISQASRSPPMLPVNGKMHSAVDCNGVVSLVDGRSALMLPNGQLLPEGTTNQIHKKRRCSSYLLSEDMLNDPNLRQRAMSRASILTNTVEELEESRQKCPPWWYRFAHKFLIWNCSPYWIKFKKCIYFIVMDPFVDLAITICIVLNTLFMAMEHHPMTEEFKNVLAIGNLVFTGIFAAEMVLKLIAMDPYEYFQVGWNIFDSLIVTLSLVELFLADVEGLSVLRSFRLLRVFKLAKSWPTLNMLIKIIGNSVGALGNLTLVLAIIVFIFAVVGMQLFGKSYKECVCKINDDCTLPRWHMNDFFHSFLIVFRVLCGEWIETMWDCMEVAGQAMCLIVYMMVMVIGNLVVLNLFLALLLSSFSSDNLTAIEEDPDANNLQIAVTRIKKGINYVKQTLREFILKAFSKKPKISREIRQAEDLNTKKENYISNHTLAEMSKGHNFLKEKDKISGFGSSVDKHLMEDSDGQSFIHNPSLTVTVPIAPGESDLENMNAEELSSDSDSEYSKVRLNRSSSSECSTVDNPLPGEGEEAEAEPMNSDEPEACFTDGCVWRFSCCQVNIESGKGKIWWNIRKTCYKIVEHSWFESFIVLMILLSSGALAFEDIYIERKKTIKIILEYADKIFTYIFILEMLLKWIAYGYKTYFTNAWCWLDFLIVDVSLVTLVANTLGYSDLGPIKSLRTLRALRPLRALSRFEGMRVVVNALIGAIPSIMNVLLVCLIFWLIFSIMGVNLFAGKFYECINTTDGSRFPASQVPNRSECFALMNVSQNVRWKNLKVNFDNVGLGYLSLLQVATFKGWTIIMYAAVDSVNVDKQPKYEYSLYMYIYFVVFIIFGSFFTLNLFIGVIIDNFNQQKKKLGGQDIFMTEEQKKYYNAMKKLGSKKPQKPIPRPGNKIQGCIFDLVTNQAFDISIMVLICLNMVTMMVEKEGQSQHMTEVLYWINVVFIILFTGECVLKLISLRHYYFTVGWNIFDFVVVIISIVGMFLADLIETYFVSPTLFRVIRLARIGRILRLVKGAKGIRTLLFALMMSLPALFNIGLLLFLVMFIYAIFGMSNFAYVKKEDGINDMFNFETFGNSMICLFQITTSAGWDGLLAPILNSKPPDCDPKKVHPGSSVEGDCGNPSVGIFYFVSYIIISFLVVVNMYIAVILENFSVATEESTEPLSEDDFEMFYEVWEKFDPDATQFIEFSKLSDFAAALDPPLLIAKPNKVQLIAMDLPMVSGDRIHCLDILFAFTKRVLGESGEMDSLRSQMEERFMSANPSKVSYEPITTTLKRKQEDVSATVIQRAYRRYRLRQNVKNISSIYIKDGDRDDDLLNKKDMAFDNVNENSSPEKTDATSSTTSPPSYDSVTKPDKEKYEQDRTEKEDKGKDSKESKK
row,SMILES,IC50
1,"NC(=O)c1cccc(-c2ccc(Oc3ccc(C(F)(F)F)cc3C(=O)C(=O)N3CCCC3)cc2)n1 [compound 157, 6-(4-(2-(2-oxo-2-(pyrrolidin-1-yl)acetyl)-4-(trifluoromethyl)-phenoxy)phenyl)picolinamide]",2.71 ± 0.235 µM
2,"NC(=O)c1cccc(-c2ccc(Oc3ccc(C(F)(F)F)cc3CNC3CCNC3)cc2)n1 (stereo not drawn) [compound 61, 6-(4-(2-((pyrrolidin-3-ylamino)methyl)-4-(trifluoromethyl)phenoxy)phenyl) picolinamide]",2.04 ± 0.06 µM
3,"NC(=O)c1cccc(-c2ccc(Oc3ccc(C(F)(F)F)cc3[C@@H](O)CO)cc2)n1 [compound 77, (R)-6-(4-(2-(1,2-dihydroxyethyl)-4-(trifluoromethyl)-phenoxy)phenyl)picolinamide]",2.45 ± 0.344 µM
4,"N#CC(N)c1cc(C(F)(F)F)ccc1Oc1ccc(-c2cccc(C(N)=O)n2)cc1 (stereo not drawn) [compound 145, 6-(4-(2-(amino(cyano)methyl)-4-(trifluoromethyl)phenoxy)phenyl) picolinamide]",3.34 ± 0.452 µM
5,"NC(=O)c1cccc(-c2ccc(Oc3ccc(C(F)(F)F)cc3C(C(=O)N3CCCC3)N3CCCC3)cc2)n1 (stereo not drawn) [compound 111, 6-(4-(2-(2-oxo-1,2-di(pyrrolidin-1-yl)ethyl)-4-(trifluoromethyl)phenoxy)phenyl) picolinamide]",6.59 ± 0.321 µM
6,"N#Cc1ccc(Oc2ccc(-c3cccc(C(N)=O)n3)cc2)c(-c2ccc(O)nc2)c1 [compound 23, 6-(4-(4-cyano-2-(6-hydroxypyridin-3-yl)phenoxy)phenyl)picolinamide]",> 20 µM
7,"NC(=O)c1cccc(-c2ccc(Oc3ccc(F)cc3)c(-c3nn[nH]n3)c2)n1 [compound 101, 6-(4-(4-fluorophenoxy)-3-(2H-tetrazol-5-yl)phenyl)picolinamide]",1.83 ± 0.383 µM
8,"NC(=O)c1cccc(-c2ccc(Oc3ccc(F)cc3)c(C(F)(F)F)c2)n1 [compound 90, 6-(4-(4-fluorophenoxy)-3-(trifluoromethyl)phenyl)picolin-amide]",> 20 µM
9,"NC(=O)c1cccc(-c2ccc(Oc3ccc(C(F)(F)F)cc3CNc3nccs3)cc2)n1 [compound 114, 6-(4-(2-((thiazol-2-ylamino)methyl)-4-(trifluoromethyl)phenoxy)phenyl) picolinamide]",2.01 ± 0.456 µM
10,"NC(=O)c1cccc(-c2ccc(Oc3ccc(C(F)(F)F)cc3/C=C3\SC(=O)NC3=O)cc2)n1 [compound 155, (Z)-6-(4-(2-((2,4-dioxothiazolidin-5-ylidene)methyl)-4-(trifluoromethyl)phenoxy)phenyl) picolinamide]",> 20 µM
11,"NC(=O)c1cccc(-c2ccc(Oc3cccc(CN4CCCC4)n3)cc2)n1 [compound 59, 6-(4-((6-(pyrrolidin-1-ylmethyl)pyridin-2-yl)oxy)phenyl)picolinamide]",> 20 µM
12,"CCCNC(C(N)=O)c1cc(C(F)(F)F)ccc1Oc1ccc(-c2cccc(C(N)=O)n2)cc1 (stereo not drawn) [compound 83, 6-(4-(2-(2-amino-2-oxo-1-(propylamino)ethyl)-4-(trifluoromethyl)phenoxy)phenyl) picolinamide]",6.05 ± 1.33 µM
13,"NC(=O)c1cccc(-c2ccc(Oc3ccc(C(F)(F)F)cc3C(O)CN3CCNC(=O)C3)cc2)n1 (stereo not drawn) [compound 79, 6-(4-(2-(1-hydroxy-2-(3-oxopiperazin-1-yl)ethyl)-4-(trifluoromethyl)phenoxy)phenyl) picolinamide]",> 20 µM

# Stronger by IC50, values ahead:
row,IC50,SMILES
1,1.68 ± 0.177 µM,"NC(=O)c1cccc(-c2ccc(Oc3ccc(C(F)(F)F)cc3CNCCO)cc2)n1 [compound 40, 6-(4-(2-(((2-hydroxyethyl)-amino)methyl)-4-(trifluoro-methyl)phenoxy)phenyl)picolin-amide]"
2,1.17 ± 0.186 µM,"NC(=O)c1cccc(-c2ccc(Oc3ccc(C(F)(F)F)cc3CN3CCC[C@@H]3CO)cc2)n1 [compound 42, (R)-6-(4-(2-((2-(hydroxyl-methyl)pyrrolidin-1-yl)methyl)-4-(trifluoromethyl)phenoxy)phenyl) picolinamide]"
3,1.13 ± 0.11 µM,"CCOCc1cc(-c2cccc(C(N)=O)n2)ccc1Oc1ccc(F)cc1 [compound 96, 6-(3-(ethoxymethyl)-4-(4-fluorophenoxy)phenyl) picolinamide]"
4,1.13 ± 0.1 µM,"NC(=O)c1cccc(-c2ccc(Oc3ccc(C(F)(F)F)cc3CN3CCC[C@H]3CO)cc2)n1 [compound 41, (S)-6-(4-(2-((2-(hydroxyl-methyl)pyrrolidin-1-yl)methyl)-4-(trifluoromethyl)phenoxy)phenyl) picolinamide]"
5,0.716 ± 0.09 µM,"NC(=O)c1cccc(-c2ccc(Oc3ccc(C(F)(F)F)cc3CN3CCCC(C(N)=O)C3)cc2)n1 (stereo not drawn) [compound 121, 6-(4-(2-((3-carbamoylpiperidin-1-yl)methyl)-4-(trifluoromethyl)phenoxy)phenyl) picolinamide]"
6,0.71 ± 0.0008 µM,"NC(=O)c1cccc(-c2ccc(Oc3ccc(C(F)(F)F)cc3C(C(N)=O)N3CCCC3)cc2)n1 (stereo not drawn) [compound 81, 6-(4-(2-(2-amino-2-oxo-1-(pyrrolidin-1-yl)ethyl)-4-(trifluoromethyl)phenoxy)phenyl) picolinamide]"
7,0.577 ± 0.056 µM,"NC(=O)c1cccc(-c2ccc(Oc3ccc(F)cc3)cc2C(F)(F)F)n1 [compound 91, 6-(4-(4-fluorophenoxy)-2-(trifluoromethyl)phenyl)picolin-amide]"
8,0.55 ± 0.057 µM,"NC(=O)c1cccc(-c2ccc(Oc3ccc(F)cc3)cc2F)n1 [compound 99, 6-(2-fluoro-4-(4-fluorophenoxy)-phenyl)picolinamide]"
9,0.455 ± 0.059 µM,"NC(=O)c1cccc(-c2ccc(Oc3ccc(C(F)(F)F)c(CN4CCNC(=O)C4)c3)cc2)n1 [compound 106, 6-(4-(3-((3-oxopiperazin-1-yl)methyl)-4-(trifluoromethyl)-phenoxy)phenyl)picolinamide]"
10,0.366 ± 0.085 µM,"NC(=O)c1cccc(-c2ccc(Oc3ccc(C(F)(F)F)c(CN4CC[C@H](O)C4)c3)cc2)n1 [compound 54, (S)-6-(4-(3-((3-hydroxy-pyrrolidin-1-yl)methyl)-4-(trifluoromethyl)phenoxy)-phenyl)picolinamide]"
11,0.337 ± 0.006 µM,"N#Cc1ccc(Oc2ccc(-c3cccc(C(N)=O)n3)cc2)c(-c2ccsc2)c1 [compound 19, 6-(4-(4-cyano-2-(thiophen-3-yl)phenoxy)phenyl)picolinamide]"
12,0.285 ± 0.009 µM,"Cn1nccc1-c1cc(C#N)ccc1Oc1ccc(-c2cccc(C(N)=O)n2)cc1 [compound 22, 6-(4-(4-cyano-2-(1-methyl-1H-pyrazol-5-yl)phenoxy)phenyl) picolinamide]"
13,0.231 ± 0.008 µM,"CC(c1cc(C(F)(F)F)ccc1Oc1ccc(-c2cccc(C(N)=O)n2)cc1)N1CCCC1 (stereo not drawn) [compound 58, 6-(4-(2-(1-(pyrrolidin-1-yl)ethyl)-4-(trifluoromethyl)phenoxy)-phenyl)picolinamide]"
14,0.214 ± 0.029 µM,"NC(=O)c1cccc(-c2ccc(Oc3ccc(C(F)(F)F)cc3C(O)C(=O)N3CCCC3)cc2)n1 (stereo not drawn) [compound 158, 6-(4-(2-(1-hydroxy-2-oxo-2-(pyrrolidin-1-yl)ethyl)-4-(trifluoromethyl)phenoxy)phenyl) picolinamide]"
15,0.118 ± 0.012 µM,"CCN(CC)Cc1cc(C(F)(F)F)ccc1Oc1ccc(-c2cccc(C(N)=O)n2)cc1 [compound 118, 6-(4-(2-((diethylamino)methyl)-4-(trifluoromethyl)phenoxy)phenyl) picolinamide]"
16,0.113 ± 0.034 µM,"NC(=O)c1cccc(-c2ccc(Oc3ccc(C(F)(F)F)cc3CN3CCC(F)(F)C3)cc2)n1 [compound 45, 6-(4-(2-((3,3-difluoropyrrolidin-1-yl)methyl)-4-(trifluoromethyl)phenoxy)phenyl) picolinamide]"
17,0.096 ± 0.01 µM,"NC(=O)c1cccc(-c2ccc(Oc3ccc(C(F)(F)F)cc3CN3CCCCC3)cc2)n1 [compound 49, 6-(4-(2-(piperidin-1-ylmethyl)-4-(trifluoromethyl)phenoxy)phenyl) picolinamide]"
